Data on three compounds can be found in US8603545B2, “Cosmetic and pharmaceutical uses of an extract of a plant belonging to the genus Buchholzia” (BASF Beauty Care Solutions France S.A.S., priority 2004, dated 2013).

Holding throughout (assay type): cell-based
Assay [1] deals with B16 melanocytes. Kind of assay: Inhibition of melanin synthesis, efficacy test on B16 melanocytes. How it is done: Aim of the experiment: to evaluate the potential of compounds to lower the melanin synthesis; the compounds have been tested on a cell culture of melanocytes called B16. • Seeding of melanocytes in growth medium • Incubation for 3 days at 37° C., CO2=5% (atmosphere: 5% carbon dioxide in air) • Exchange of the growth medium by a medium with a range of concentration of ingredients to be tested • Incubation for 3 days at 37° C., CO2=5% (atmosphere: 5% carbon dioxide in air) • Recording of Cellular levels of protein by Bradford's method • Recording of melanin by a spectrophotometric method (OD at 475 nm) Results in % against control (average of 2 assays in triplicate): […]

In assay [2] the test system is human fibroblasts. Kind of assay: Inhibition of UVA effect on human fibroblasts. The method, then:
Aim of the experiment: Determination of the potential of the tested ingredient to reduce negative effects of UV-A radiation on the survival rate of human fibroblasts.
• Seeding of human fibroblasts in a growth medium • Incubation for 3 days at 37° C., CO2=5% (atmosphere: 5% carbon dioxide in air) • Exchange of the growth medium by a medium with a range of concentration of ingredients to be tested • Incubation for 2 days at 37° C., CO2=5% • Exchange of the medium with ingredients by a balanced salt solution and UV-A irradiation (20 J/cm^2) • Recording of released MDA levels by spectro-fluorimetry. (MDA (malonaldialdehyde) is a product of oxidative degradation of lipids from cell membranes) • Recording of intracellular proteins by Bradford's method
Results in % against control (average of 2 assays in triplicate): […]

The subject of assay [3] is human keratinocytes. The assay is described as follows: Inhibition of UVB effect on human keratinocytes. The text has this: Aim of the experiment: Determination of the potential of the tested ingredient to reduce negative effects of UV-B radiation on the survival rate of human keratinocytes. It is well known that UV-B radiation induces a cutaneous inflammation by stimulation of enzymes such as phospholipase A2 (PLA2). This enzyme catalyses the release of arachidonic acid which is a precursor of mediators of inflammation like the prostaglandin PGE2. Moreover this membrane stress results in the release of a cytoplasmic enzyme: lactate dehydrogenase (LDH). • Seeding of human keratinocytes in a growth medium • Incubation for 3 days at 37° C., CO2=5% (atmosphere: 5% carbon dioxide in air) • Exchange of the growth medium by balanced salt solution with a range of concentration of ingredients to be tested • Irradiation of keratinocytes by UV-B: 30 mJ/cm^2 • Incubation for 1 day at 37° C., CO2=5% • Recording of cell number by DNA measurement with a fluorescent probe • Recording of the level of released LDH (by an enzymatic reaction) and released PGE2 (by ELISA method) Results in % against control (average of 2 assays in triplicate): […]

Setting [4] is: UV-A 20 J/cm2, dose 0.0003 % w/v.
The mark [5] stands for this setting: UV-B 30 mJ/cm2, dose 0.03 % w/v.

With `O=c1cc(CO)occ1O` [kojic acid], the “rate of released melanin from treated B16 melanocytes (in words)” value in assay [1] is reported as “strongly decreased”. Besides, in assay [1] (dose 0.03 % w/v), the “Rate of cellular proteins” value was 117 % against control and the Rate of melanin is 34 % against control.

For Vitamin E, in assay [2], the “rate of released MDA from UV-A irradiated fibroblasts (in words)” value is “strongly decreased”. In assay [2] (setting [4]), the Intracellular proteins is 103 % against control and the “Rate of released MDA” value came to 25 % against control.

As to `CC(=O)Oc1ccccc1C(=O)O` [Aspirin ®, Aspirin], in assay [3], the “level of cell number from UV-B irradiated keratinocytes (in words)” value is reported as “strongly increased”, the “level of released LDH from UV-B irradiated keratinocytes (in words)” value is reported as “strongly decreased” and the “level of released PGE2 from UV-B irradiated keratinocytes (in words)” value is listed as “strongly decreased”. Further, in assay [3] (setting [5]), the Cell number is 59 % against control, the “Level of released LDH” value is given as 8 % against control and the “Level of released PGE2” value amounted to 0 % against control.
